These results are taken from publication PMC10745505 (Molecules, 2023).

For data set [1], the system named is Hep-2 (human larynx carcinoma cell line). As to conditions: read-out: half-maximal cell inhibition concentration (IC50); Hep-2 cells, MTT, 72 h, concentration range up to 2 mM. The text has this:
(§1) MDCK (Madin–Darby canine kidney, ATCC CCL34), MRC-5 (lung tissue fibroblasts of a human embryo, collection code 112) and Hep-2 (human larynx carcinoma) cell lines were obtained from the Federal Budgetary Research Institution State Research Center of Virology and Biotechnology “Vector” Rospotrebnadzor cell culture collection, Russian Federation and cultured in Eagle’s Minimum Essential Medium (EMEM) and Dulbecco’s Modified Eagle’s Medium (DMEM) in relation to 1:1 supplemented with a 10% fetal bovine serum under a humidified atmosphere (5% CO2 and 95% air) at 37 °C.
(§2) The effect of compounds 1, 2 and 3 on the cells metabolic activity was determined using the 3-[4,5-dimethylthiazol-2-yl]-2,5-diphenyltetrazolium bromide (MTT) colorimetric assay. The Hep-2 and MRC-5 cells were seeded into 96-well plates at 7 × 10^3 cells/well in a medium-containing compound with concentrations from 2 to 0.01 mM and then incubated for 72 h under 5% CO2 atmosphere. After that, 10 μL of the MTT solution (final concentration of MTT is 0.5 mg·mL^−1) was added to each well, and the plates were incubated for a further 4 h. The formazan produced was then dissolved in DMSO (100 μL/well). The optical density of the solutions was measured with a Mindray Microplate Reader MR-96A (Mindray, Shenzhen, China) at a wavelength of 492 nm. The percentage of cell viability was calculated by the formula: (optical density of the solution in the wells after incubation with the compounds/optical density of the control solution) × 100%. Wells with cells incubated in a pure nutrient medium were used as a control.

The subject of data set [2] is MRC-5 (lung tissue fibroblasts of a human embryo). The conditions noted are these: read-out: half-maximal cell inhibition concentration (IC50); MRC-5 cells, MTT, 72 h, concentration range up to 2 mM.
Text: as §1, §2

Data set [3] has as its system Hep-2 cells. Description: Cellular penetration: Mo content in Hep-2 cells by ICP-AES. It counts as cell-based, human. The conditions noted are these: for Cellular penetration: Hep-2 cells, 30 min to 48 h incubation, ICP-AES. On the procedure: (§3) The cells were seeded into 6-well plates at concentration of 5 × 10^5 cells/well. The next day, solutions of 1 and 2 were added to the plates to give final concentrations of 1.0 mM and incubated with cells for 30 min, 2, 6, 24 and 48 h. Then, cells were washed three times with a sterile phosphate buffer. The cells were then removed from the wells with trypsin and centrifuged at 1000 rpm for 5 min. After centrifugation, the number of cells in each sample was calculated. The resulting cell suspension was brought to a volume of 300 µL in a sterile buffer so that each sample contained 0.5 million cells.
(§4) Molybdenum content in cells after incubation times was determined on a high-resolution spectrometer iCAP-6500 (Thermo Scientific, Waltham, MA, USA) with a cyclone-type spray chamber and “SeaSpray” nebulizer. The spectra were obtained by axial plasma viewing. Standard operating conditions of the ICP-AES system were following: power = 1150 W, injector inner diameter = 3 mm, carrier argon flow = 0.7 L min^−1, accessorial argon flow = 0.5 L min^−1, cooling argon flow = 12 L min^−1, number of parallel measurements = 3, and integration time = 5 s.

For data set [4], the system named is MRC-5 cells. Description: Cellular penetration: Mo content in MRC-5 cells by ICP-AES. The conditions noted are these: for Cellular penetration: MRC-5 cells, 30 min to 48 h incubation, ICP-AES. It counts as cell-based, human. The method, then:
as §3, §4

Data set [5] concerns influenza A virus, subtype H5N1 (strain A/chicken/Chelyabinsk region/2KL/Russia/2021). Type of data set: cell-based.
Data set [6] in a line: Stability in solution by changes in electronic absorption spectra. As to conditions: for behaviour in acid solution: HCl, pH~2, two days; for stability in distilled water: pH~6, two days, C~1 mM. It counts as physicochemical. On the procedure:
Since the compounds are soluble in water, an important factor is their stability in aqueous solutions at different pH. Stability was studied by changes in electronic absorption spectra over two days (C~1 mM, diluted 60 times to record spectra) (Figure 6). […] The most significant changes occur in the acid solution (HCl, pH~2). […] Protonation of the pyrazolate ligands, which occurs in acidic solutions, results in the dissociation of binuclear clusters. […] Unlike the pyrazole, the triazole structure has an additional free nitrogen atom that can be protonated. In this case, protonation of the triazolate ligands and formation of a neutral form [Mo12O28(μ-1,2,4-trz)4(μ-1,2,4-trzH)4] with low solubility apparently occurs. […] The complex can be dissolved back into water by adding any alkali solution, which is confirmed by the preservation of the ^1H NMR spectra (Figure S15). Typically, most POMs are not stable in weakly acidic or alkaline aqueous solutions [26, 27], while the compounds studied show the opposite situation, which is associated with both the structure based on binuclear clusters and their linkages through bridging pyrazolate or triazolate ligands.
Elemental analyses were obtained using a vario MICRO cube analyzer and EuroVector EA3000. Energy-dispersive X-ray spectroscopy (EDS) was performed on a Hitachi TM3000 TableTop SEM (Hitachi High-Technologies Corporation, Tokyo, Japan) with Bruker QUANTAX 70 EDS equipment. FTIR spectra were recorded on a Bruker Vertex 80 as KBr disks. The thermal properties (TGA) were studied on a Thermo Microbalance TG 209 F1 Iris (NETZSCH) from 25 to 800 °C at the heating rate of 10 °C·min^−1 in He flow (30 mL·min^−1). Powder X-ray diffraction patterns were collected on a Philips PW 1820/1710 diffractometer (CuKα radiation, graphite monochromator and Si as an external reference). The absorption spectra (UV–vis) were recorded on an Agilent Cary 60 UV/Vis spectrophotometer.

The test system of data set [7] is MDCK cells (Madin–Darby canine kidney cells). As to conditions: absence of virus, up to 500 μM, 72 h.
For data set [8], the system named is Influenza A H1N1. On the set-up: method as in PMID 24878685. As to conditions: Influenza A H1N1, incubation time 48h, cited from earlier work.
Data set [9] has as its system MDCK cells. Details: method as in PMID 24878685. As to conditions: read-out: IC50 (cytotoxicity against MDCK cells); cited from earlier work.
Data set [10] has as its system influenza virus. Details: method as in PMID 11825310, PMID 9588843. The conditions noted are these: usually; cited from earlier work.
A short description of data set [11]: Solubility. It counts as physicochemical. As to conditions: compared with the other complexes.
[12] abbreviates: Hep-2, 1 mM solution (∽2350 µg Mo/5·10^5 cells), 30 minutes.
Where [13] appears, read: MRC-5, 1 mM solution (∽2350 µg Mo/5·10^5 cells), 30 minutes.

Where two headings read alike, the source gives them in different places.

As to “(NH4)4[Mo12O28(μ-pz)8]·1.5pzH·4.5H2O [Compound 1]”, the IC50 in [1] and in data set [2] was above 2000 µM throughout. The “Quantity of Mo accumulated by cells” value in data set [3] (setting [12]) is recorded as 0.25 μg Mo/5·105 cells; in [3] (Hep-2, 1 mM solution, 2 hours), 0.46 μg Mo/5·105 cells; in data set [3] (Hep-2, 1 mM solution, 6 hours) it was 0.47 μg Mo/5·105 cells; in [3] (Hep-2, 1 mM solution, 24 hours) it was 0.75 μg Mo/5·105 cells; in data set [3] (Hep-2, 1 mM solution, 48 hours) it was 0.75 μg Mo/5·105 cells; in data set [4] (setting [13]), 0.22 μg Mo/5·105 cells. The “Quantity of Mo accumulated by cells” value was 0.25 μg Mo/5·105 cells in [4] (MRC-5, 1 mM solution, 2 hours); 0.24 μg Mo/5·105 cells in data set [4] (MRC-5, 1 mM solution, 6 hours); 0.77 μg Mo/5·105 cells in [4] (MRC-5, 1 mM solution, 24 hours); 0.83 μg Mo/5·105 cells in data set [4] (MRC-5, 1 mM solution, 48 hours). The Cellular penetration result in data set [3] and in data set [4] was “absence of cell penetration” each time. In [5] (MDCK cells in presence of H5N1 virus, 72 h, MTT), the “concentrations at which antiviral effect was found” value is “above 62.5 μM”. Besides, the EC50 in data set [5] (presence of H5N1 virus, 72 h, nonlinear regression, read-out: EC50 (50% virus-inhibitory effective concentration as indirectly measured by MDCK cell viability)) turned out to be 82.4 ± 11.4 µM. The “behaviour in acid solution” value in data set [6] is “complete destruction”. In addition, the “decrease in the absorption intensity” value in data set [6] (NaOH, pH~12, two days) was ~ 10%. Moreover, the “stability in distilled water” value in data set [6] is given as “high stability”. Also, in data set [7], the “cytopathic effect on MDCK cells” value is given as “do not show any significant cytopathic effect”.
As to Cs2K4Na[SiW9Nb3O40] [POM93], the EC50 is around 2.4 µM in [8] (converted from μg/mL, read-out: EC50) and 7.4 ± 1.1 µg/mL in data set [8]. Further, the IC50 in data set [9] is 140 µM.
Turning to `CCOC(=O)C1=C[C@@H](OC(CC)CC)[C@H](NC(C)=O)[C@@H](N)C1` [oseltamivir], the EC50 in data set [10] was below 10 µM.
Regarding `CC(=O)N[C@H]1[C@H]([C@H](O)[C@H](O)CO)OC(C(=O)O)=C[C@@H]1N=C(N)N` [zanamivir], in [10], the EC50 is below 10 µM.
“(NH4)4[Mo12O28(μ-1,2,3-trz)8]·4H2O [Compound 3]”: the solubility in water result in data set [11] was “significantly lower solubility in water”.
With “(NH4)4[Mo12O28(μ-1,2,4-trz)8]·1.5(1,2,4-trzH)·3H2O [Compound 2]”, the values for the IC50 in data set [1] and in [2] were above 2000 µM and 1810 ± 40 µM, respectively. The “Quantity of Mo accumulated by cells” value is on record as 0.18 μg Mo/5·105 cells in data set [3] (setting [12]); 0.32 μg Mo/5·105 cells in data set [3] (Hep-2, 1 mM solution, 2 hours); 0.33 μg Mo/5·105 cells in data set [3] (Hep-2, 1 mM solution, 6 hours); 0.43 μg Mo/5·105 cells in data set [3] (Hep-2, 1 mM solution, 24 hours); 0.42 μg Mo/5·105 cells in data set [3] (Hep-2, 1 mM solution, 48 hours); 0.23 μg Mo/5·105 cells in data set [4] (setting [13]). For the same molecule, the “Quantity of Mo accumulated by cells” value in data set [4] (MRC-5, 1 mM solution, 2 hours) is recorded as 0.11 μg Mo/5·105 cells; in data set [4] (MRC-5, 1 mM solution, 6 hours), 0.12 μg Mo/5·105 cells; in [4] (MRC-5, 1 mM solution, 24 hours), 0.34 μg Mo/5·105 cells; in data set [4] (MRC-5, 1 mM solution, 48 hours), 0.34 μg Mo/5·105 cells. The Cellular penetration entry in [3] and in data set [4] was “absence of cell penetration” in each case. In data set [5] (MDCK cells in presence of H5N1 virus, concentration range tested up to 500 μM), the antiviral effect entry is given as “no effect or insignificant effect”. In [6], the “behaviour in acid solution” value is listed as “immediately precipitates”. In addition, the “stability in alkaline solution (spectral change)” value in data set [6] (NaOH, pH~12, two days) is recorded as “slight change in the absorption intensity”. Besides, the “stability in distilled water” value in data set [6] is listed as “high stability”. Also, in [7], the “cytopathic effect on MDCK cells” value is recorded as “do not show any significant cytopathic effect”.
